Source: US20120264735A1 (priority 2009, published 2012)

Biological target: T1, c-Met kinase (recombinant c-Met) (Homo sapiens, UniProt P08581)
T1 construct: 0.27 nM recombinant c-Met
Assay: In vitro kinase assay I (homogeneous time-resolved fluorescence tyrosine kinase assay)
Type: biochemical
Procedure, shortened: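 Biotinylated peptide (0.5 μM) phosphorylated by 0.2 nM recombinant c-Met with 50 μM MgATP, 60 min at room temperature, pH 7.4, 5% DMSO. EDTA stop; HTRF read with Eu-anti-phosphotyrosine antibody and streptavidin-APC. IC50 from 4-parameter logistic fit.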

T1 sequence (P08581 25-1390): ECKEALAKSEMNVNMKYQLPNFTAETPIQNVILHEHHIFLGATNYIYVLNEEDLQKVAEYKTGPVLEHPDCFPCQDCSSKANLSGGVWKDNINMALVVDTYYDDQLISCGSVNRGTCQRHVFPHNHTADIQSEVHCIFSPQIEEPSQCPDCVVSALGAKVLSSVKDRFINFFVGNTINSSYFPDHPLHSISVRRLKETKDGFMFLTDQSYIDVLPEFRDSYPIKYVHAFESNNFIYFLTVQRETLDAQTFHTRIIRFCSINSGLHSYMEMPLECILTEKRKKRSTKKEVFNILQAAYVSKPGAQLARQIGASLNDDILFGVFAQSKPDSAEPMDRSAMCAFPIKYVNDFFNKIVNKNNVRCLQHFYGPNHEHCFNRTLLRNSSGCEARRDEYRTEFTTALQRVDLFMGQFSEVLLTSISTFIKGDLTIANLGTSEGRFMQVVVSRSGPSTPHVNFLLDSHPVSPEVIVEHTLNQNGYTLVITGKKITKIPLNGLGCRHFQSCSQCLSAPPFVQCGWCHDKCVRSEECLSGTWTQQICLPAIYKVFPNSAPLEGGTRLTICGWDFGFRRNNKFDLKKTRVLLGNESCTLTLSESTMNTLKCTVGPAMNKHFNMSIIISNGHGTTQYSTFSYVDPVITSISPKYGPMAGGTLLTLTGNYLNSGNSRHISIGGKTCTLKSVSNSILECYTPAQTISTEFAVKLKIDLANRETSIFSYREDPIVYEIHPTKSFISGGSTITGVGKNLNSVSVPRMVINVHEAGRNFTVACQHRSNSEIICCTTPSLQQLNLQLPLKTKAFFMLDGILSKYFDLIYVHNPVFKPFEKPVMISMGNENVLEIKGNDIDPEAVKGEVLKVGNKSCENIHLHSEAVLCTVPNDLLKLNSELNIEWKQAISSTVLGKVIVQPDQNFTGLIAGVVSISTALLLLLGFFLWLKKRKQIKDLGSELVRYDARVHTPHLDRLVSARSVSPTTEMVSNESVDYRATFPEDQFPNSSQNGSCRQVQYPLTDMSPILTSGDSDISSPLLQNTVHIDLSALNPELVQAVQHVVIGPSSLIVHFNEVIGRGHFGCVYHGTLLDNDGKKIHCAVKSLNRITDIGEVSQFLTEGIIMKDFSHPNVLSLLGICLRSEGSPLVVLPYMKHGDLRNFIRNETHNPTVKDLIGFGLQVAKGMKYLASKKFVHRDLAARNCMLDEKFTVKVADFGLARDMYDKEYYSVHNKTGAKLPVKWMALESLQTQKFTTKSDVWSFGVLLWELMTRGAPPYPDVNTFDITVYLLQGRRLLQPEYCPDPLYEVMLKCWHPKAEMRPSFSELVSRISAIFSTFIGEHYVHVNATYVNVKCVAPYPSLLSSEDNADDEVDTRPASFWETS

Compound	IC50 [nM]
CCOC(=O)c1cccc(Cc2nn(-c3cnn(C)c3)ccc2=O)c1F [Example 47, ethyl 2-fluoro-3-{[1-(1-methyl-1H-pyrazol-4-yl)-4-oxo-1,4-dihydropyridazin-3-yl]methyl}benzoate]	100 to 1000
CCn1cc(-n2ccc(=O)c(C(C)c3cccc(-c4ncc(OCc5ccccc5)cn4)c3)n2)cn1 (single isomer, unassigned) [Example 228, 3-((1S or R)-1-{3-[5-(benzyloxy)pyrimidin-2-yl]phenyl}ethyl)-1-(1-ethyl-1H-pyrazol-4-yl)pyridazin-4(1H)-one]	100 to 1000
O=c1ccn(-c2cc(F)cc(F)c2)nc1Cc1cccc(-c2ncc(O)cn2)c1 [compound 189, 1-(3,5-difluorophenyl)-3-[3-(5-hydroxypyrimidin-2-yl)benzyl]pyridazin-4(1H)-one]	100 to 1000
CC(c1cccc(-c2ncc(O[C@@H]3CCNC[C@H]3F)cn2)c1)c1nn(-c2cnn(C)c2)ccc1=O (single isomer, unassigned) [Example 343, 3-{(1R or S)-1-[3-(5-{[(3R or S, 4R or S)-3-fluoropiperidin-4-yl]oxy}pyrimidin-2-yl)phenyl]ethyl}-1-(1-methyl-1H-pyrazol-4-yl)pyridazin-4(1H)-one]	100 to 1000
CCn1cc(-n2ccc(=O)c(C(C)c3cccc(-c4ncc(OCCOC)cn4)c3)n2)cn1 (single isomer, unassigned) [Example 247, 1-(1-ethyl-1H-pyrazol-4-yl)-3-((1S or R)-1-{3-[5-(2-methoxyethoxy)primidin-2-yl]phenyl}ethyl)pyridazin-4(1H)-one]	100 to 1000
CCOC(=O)Nc1cccc(Cc2nn(-c3cnn(CC)c3)ccc2=O)c1 [Example 109, ethyl (3-{[1-(1-ethyl-1H-pyrazol-4-yl)-4-oxo-1,4-dihydropyridazin-3-yl]methyl}phenyl)carbamate]	< 100
O=c1ccn(-c2ccc(F)c(F)c2)nc1Cc1cccc(-c2ncc(OC3CCOC3)cn2)c1 (single isomer, unassigned) [Example 350, 1-(3,4-difluorophenyl)-3-(3-{5-[(3S or R)-tetrahydrofuran-3-yloxy]pyrimidin-2-yl}benzyl)pyridazin-4(1H)-one]	< 100
Cn1cc(-n2ccc(=O)c(Cc3cccc(-c4ncc(OCCc5cnoc5)cn4)c3)n2)cn1 [Example 273, 3-{3-[5-(2-isoxazol-4-ylethoxy)pyrimidin-2-yl]benzyl}-1-(1-methyl-1H-pyrazol-4-yl)pyridazin-4(1H)-one]	< 100
CCOC(=O)Nc1cccc(Cc2nn(-c3cccc(O)c3)ccc2=O)c1 [Example 646, Ethyl(3-{[1-(3-hydroxyphenyl)-4-oxo-1,4-dihydropyridazin-3-yl]methyl}phenyl)carbamate]	< 100
CCn1cc(-n2ccc(=O)c(Cc3cccc(-c4ncc(OCCO)cn4)c3)n2)cn1 [Example 307, 1-(1-ethyl-1H-pyrazol-4-yl)-3-{3-[5-(2-hydroxyethoxy)pyrimidin-2-yl]benzyl}pyridazin-4(1H)-one]	< 100
Cn1cc(-n2ccc(=O)c(Cc3cccc(CC(N)=O)c3)n2)cn1 [Example 48, 2-(3-{[1-(1-methyl-1H-pyrazol-4-yl)-4-oxo-1,4-dihydropyridazin-3-yl]methyl}phenyl)acetamide]	1000 to 3000
CNC(=O)CCCn1cc(-n2ccc(=O)c(Cc3cccc(NC(=O)OCC(C)C)c3)n2)cn1 [Example 697, 2-methylpropyl {3-[(1-{1-[4-(methylamino)-4-oxobutyl]-1H-pyrazol-4-yl}-4-oxo-1,4-dihydropyridazin-3-yl)methyl]phenyl} carbamate]	< 100
Cn1cc(-n2ccc(=O)c(Cc3cccc(NC(=O)OCCCN4CCNCC4)c3)n2)cn1 [Example 626, 3-piperazin-1-ylpropyl (3-{[1-(1-methyl-1H-pyrazol-4-yl)-4-oxo-1,4-dihydropyridazin-3-yl]methyl}phenyl)carbamate]	< 100
Cn1cc(-n2ccc(=O)c(Cc3cccc(-c4ncc(-c5ccc(F)cn5)cn4)c3)n2)cn1 [Example 418, 3-{3-[5-(5-fluoropyridin-2-yl)pyrimidin-2-yl]benzyl}-1-(1-methyl-1H-pyrazol-4-yl)pyridazin-4(1H)-one]	< 100
CNCc1cnc(-c2cccc(Cc3nn(-c4cnn(C)c4)ccc3=O)c2)nc1 [Example 427, 3-(3-{5-[(methylamino)methyl]pyrimidin-2-yl}benzyl)-1-(1-methyl-1H-pyrazol-4-yl)pyridazin-4(1H)-one]	100 to 1000
O=C(Nc1cccc(Cc2nn(-c3cc(F)c(F)c(F)c3)ccc2=O)c1)OCCN1CCS(=O)(=O)CC1 [Example 515, 2-(1,1-dioxidothio-morpholin-4-yl)ethyl (3-{[4-oxo-1-(3,4,5-trifluorophenyl)-1,4-dihydropyridazin-3-yl]methyl}phenyl)carbamate]	< 100

Second part, the molecule after the results:

IC50 [nM]	Compound
< 100	Cn1cc(-n2ccc(=O)c(Cc3cccc(NC(=O)OCC(F)CN4CCOCC4)c3)n2)cn1 (racemic) [Example 638, rac-2-Fluoro-3-morpholin-4-ylpropyl (3-{[1-(1-methyl-1H-pyrazol-4-yl)-4-oxo-1,4-dihydropyridazin-3-yl]methyl}phenyl)carbamate]
< 100	CC(C)COC(=O)Nc1cccc(Cc2nn(-c3cnn(CC(F)(F)F)c3)ccc2=O)c1 [Example 93, 2-methylpropyl [3-({4-oxo-1-[1-(2,2,2-trifluoroethyl)-1H-pyrazol-4-yl]-1,4-dihydropyridazin-3-yl}methyl)phenyl]carbamate]
< 100	CCn1cc(-n2ccc(=O)c(C(C)c3cccc(-c4ncn(CC)n4)c3)n2)cn1 (single isomer, unassigned) [Example 687, 1-(1-ethyl-1H-pyrazol-4-yl)-3-{(1R or S)-1-[3-(1-ethyl-1H-1,2,4-triazol-3-yl)phenyl]ethyl} pyridazin-4(1H)-one]
< 100	Cn1cc(-n2ccc(=O)c(Cc3cccc(-c4ncc(NC(=O)OC(C)(C)C)cn4)c3)n2)cn1 [Example 159, tert-butyl [2-(3-{[1-(1-methyl-1H-pyrazol-4-yl)-4-oxo-1,4-dihydropyridazin-3-yl]methyl}phenyl)pyrimidin-5-yl]carbamate]
< 100	COCCCOC(=O)Nc1cccc(Cc2nn(-c3cnn(C)c3)ccc2=O)c1 [Example 575, 3-methoxypropyl (3-{[1-(1-methyl-1H-pyrazol-4-yl)-4-oxo-1,4-dihydropyridazin-3-yl]methyl}phenyl)carbamate]
< 100	COCCOC(=O)Nc1cccc(Cc2nn(-c3cncc(C#N)c3)ccc2=O)c1 [Example 129, 2-methoxyethyl (3-{[1-(5-cyanopyridin-3-yl)-4-oxo-1,4-dihydropyridazin-3-yl]methyl}phenyl)carbamate]
< 100	COCCOCCOC(=O)Nc1cccc(Cc2nn(-c3cc(F)c(F)c(F)c3)ccc2=O)c1 [Example 599, 2-(2-methoxyethoxy)ethyl (3-{[4-oxo-1-(3,4,5-trifluorophenyl)-1,4-dihydropyridazin-3-yl]methyl}phenyl)carbamate]
< 100	COCCOc1cnc(-c2cccc(Cc3nn(-c4cnn(C)c4)cc(C)c3=O)c2)nc1 [Example 750, 3-{3-[5-(2-Methoxyethoxy)pyrimidin-2-yl]benzyl}-5-methyl-1-(1-methyl-1H-pyrazol-4-yl)pyridazin-4(1H)-one]
< 100	CCn1cc(-n2ccc(=O)c(Cc3cccc(-c4ncc(OCC5CCN(C(=O)OC(C)(C)C)CC5)cn4)c3)n2)cn1 [Example 288, tert-butyl 4-({[2-(3-{[1-(1-ethyl-1H-pyrazol-4-yl)-4-oxo-1,4-dihydropyridazin-3-yl]methyl}phenyl)pyrimidin-5-yl]oxy}methyl)piperidine-1-carboxylate]
< 100	CCCn1cnc(-c2cccc(Cc3nn(-c4cnn(CCO)c4)ccc3=O)c2)n1 [compound 192, 1-[1-(2-hydroxyethyl)-1H-pyrazol-4-yl]-3-[3-(1-propyl-1H-1,2,4-triazol-3-yl)benzyl]pyridazin-4(1H)-one]
< 100	CN1CCN(CCCOC(=O)Nc2cccc(Cc3nn(-c4cnn(C)c4)ccc3=O)c2)CC1 [Example 536, 3-(4-methylpiperazin-1-yl)propyl-(3-{[1-(1-methyl-1H-pyrazol-4-yl)-4-oxo-1,4-dihydropyridazin-3-yl]methyl}phenyl)carbamate]
< 100	Cn1cc(-n2ccc(=O)c(Cc3cccc(-c4ncc(OCCN5CCOCC5)cn4)c3)n2)cn1 [Example 263, 1-(1-methyl-1H-pyrazol-4-yl)-3-{3-[5-(2-morpholin-4-ylethoxy)pyrimidin-2-yl]benzyl}pyridazin-4(1H)-one]
< 100	Cn1cc(-n2ccc(=O)c(Cc3cccc(-c4ncc(OCC5(CF)COC5)cn4)c3)n2)cn1 [Example 387, 3-[3-(5-{[3-(Fluoromethyl)oxetan-3-yl]methoxy}pyrimidin-2-yl)benzyl]-1-(1-methyl-1H-pyrazol-4-yl)pyridazin-4(1H)-one]
< 100	Cn1cc(-n2ccc(=O)c(Cc3cccc(NC(=O)OCC4(C)COC4)c3)n2)cn1 [Example 543, (3-methyloxetan-3-yl)methyl (3-{[1-(1-methyl-1H-pyrazol-4-yl)-4-oxo-1,4-dihydropyridazin-3-yl]methyl}phenyl)carbamate]
< 100	O=C(Nc1cccc(Cc2nn(-c3cc(F)cc(F)c3)ccc2=O)c1)OCC1CCOC1 (racemic) [Example 593, rac-tetrahydrofuran-3-ylmethyl-(3-{[1-(3,5-difluorophenyl)-4-oxo-1,4-dihydropyridazin-3-yl]methyl}phenyl)carbamate]
< 100	CCNc1cnc(-c2cccc(Cc3nn(-c4cnn(C)c4)ccc3=O)c2)nc1 [Example 452]
< 100	CCOC(=O)Nc1cccc(Cc2nn(-c3ccc(Br)cc3)ccc2=O)c1 [Example 18, ethyl (3-{[1-(4-bromophenyl)-4-oxo-1,4-dihydropyridazin-3-yl]methyl}phenyl)carbamate]
< 100	Cn1cc(-n2ccc(=O)c(Cc3cccc(NC(=O)OCCC(C)(C)O)c3)n2)cn1 [Example 526, 3-hydroxy-3-methylbutyl (3-{[1-(1-methyl-1H-pyrazol-4-yl)-4-oxo-1,4-dihydropyridazin-3-yl]methyl}phenyl)carbamate]
